# Several values for one entry are separate records, joined by “and”; a condition that tells them apart may be missing. Equal entries are not always repeated.
# Assays:
# [1] = test system: gluconeogenic and lipogenic gene mRNA in primary hepatocytes; test: Quantitative PCR of gene expression in primary hepatocytes; format: cell-based, mouse; parameters: key to Lxra mRNA levels: mRNA level normalized to ribosomal L32 mRNA (internal control); key to Crtc2 mRNA levels / Srebf-1c mRNA levels / Srebf-2 mRNA levels / mRNA levels of G6pc / mRNA levels of CREB / mRNA levels of CRTC2: relative mRNA level, normalized to ribosomal L32; settings: for Lxra mRNA levels, Mean / Srebf-2 mRNA levels, Mean / Srebf-1c mRNA levels, Mean / Crtc2 mRNA levels, Mean / Crtc2 mRNA levels / Lxra mRNA levels / Srebf-1c mRNA levels / Srebf-2 mRNA levels: Figure 7f; for Lxra mRNA levels, Mean / Srebf-2 mRNA levels, Mean / Srebf-1c mRNA levels, Mean / Crtc2 mRNA levels, Mean: mean of N=3; for Crtc2 mRNA levels / Lxra mRNA levels / Srebf-1c mRNA levels / Srebf-2 mRNA levels / mRNA levels of G6pc / mRNA levels of Pck1: single replicates; for mRNA of G6pc, mean / mRNA of Pck1, mean / mRNA levels of G6pc / mRNA levels of Pck1: Figure 9d; for mRNA of G6pc, mean / mRNA of Pck1, mean: group mean, N 6; for mRNA levels of CREB / mRNA levels of CRTC2 / mRNA levels of CREB, group mean (Mean 2) / mRNA levels of CRTC2, group mean (Mean 2): Supp. Fig.10 d; for mRNA levels of CREB / mRNA levels of CRTC2: individual replicates; for mRNA levels of CREB, group mean (Mean 2) / mRNA levels of CRTC2, group mean (Mean 2): n=6
# Procedure: Total RNA from cells and tissues was extracted by Trizol (Invitrogen) and reverse-transcribed into cDNA using the prime script RT reagent kit with gDNA eraser (Takara). The mRNA levels were determined using the SYBR-green PCR kit (Takara) with ABIPRISM 7900HT Sequence detector (ABI) according to the manufacturer’s protocol. The quantitative qPCR primers used in this work are listed in Supplementary Table 1. Ribosomal L32 mRNA levels were used as an internal control.
# Metabolic chamber assay = format: in vivo, mouse; settings: DIO ip APC; for AUC of RER, %, group mean: mean of APC group, N=4; for AUC of RER, % / RER of DIO: single animals
# Procedure: Metabolic parameters of mice were determined using Columbus Instruments Comprehensive Lab Animal Monitoring System (CLAMS). The area unit under the curve (AUC) of respiratory exchange ratio (RER) and ambulatory activity (X-TOT) were calculated using Graphpad prism 8.0.
structure (smiles),measurement,setting,value
"CC(C)=CCc1cc(C=CC(=O)O)cc(CC=C(C)C)c1O [APC, 3,5-diprenyl-4-hydroxycinnamic acid]","Lxra mRNA levels, Mean","[1]; LV-CRTC2(S171A), Ctrl mean 1.393",0.7111
same,"Srebf-2 mRNA levels, Mean","[1]; LV-CRTC2(S171A), Ctrl mean 1.711",0.86
same,"Srebf-1c mRNA levels, Mean","[1]; LV-CRTC2(S171A), Ctrl mean 1.819",1.166
same,"Crtc2 mRNA levels, Mean","[1]; LV-CRTC2(S171A), Ctrl mean 153.3",159.3
same,Crtc2 mRNA levels,[1]; LV-Crtc2-S171A,189.700 and 115.000 and 173.200
same,Lxra mRNA levels,[1]; LV-Crtc2-S171A,0.732 and 0.747 and 0.654
same,Srebf-1c mRNA levels,[1]; LV-Crtc2-S171A,1.132 and 1.102 and 1.263
same,Srebf-2 mRNA levels,[1]; LV-Crtc2-S171A,0.860 and 0.819 and 0.901
same,"Crtc2 mRNA levels, Mean","[1]; LV-GFP, Ctrl mean 0.9233",1.106
same,"Lxra mRNA levels, Mean","[1]; LV-GFP, Ctrl mean 0.93",0.8542
same,"Srebf-2 mRNA levels, Mean","[1]; LV-GFP, Ctrl mean 0.9967",1.087
same,"Srebf-1c mRNA levels, Mean","[1]; LV-GFP, Ctrl mean 1.053",0.9578
same,Crtc2 mRNA levels,[1]; LV-Gfp,1.240 and 0.976 and 1.101
same,Lxra mRNA levels,[1]; LV-Gfp,0.950 and 0.709 and 0.904
same,Srebf-1c mRNA levels,[1]; LV-Gfp,0.940 and 1.083 and 0.850
same,Srebf-2 mRNA levels,[1]; LV-Gfp,1.040 and 1.162 and 1.060
same,"mRNA of G6pc, mean",[1]; +Gluc,73.01
same,"mRNA of Pck1, mean",[1]; +Gluc,64.35
same,mRNA levels of G6pc,[1]; +Gluc,67.250 and 68.919 and 73.819 and 74.050 and 79.623 and 74.414
same,mRNA levels of Pck1,[1]; +Gluc,68.035 and 58.064 and 57.318 and 65.734 and 69.952 and 67.024
same,"mRNA of G6pc, mean",[1]; -Gluc,0.2875
same,"mRNA of Pck1, mean",[1]; -Gluc,0.3152
same,mRNA levels of G6pc,[1]; -Gluc,0.207 and 0.251 and 0.273 and 0.385 and 0.234 and 0.375
same,mRNA levels of Pck1,[1]; -Gluc,0.283 and 0.267 and 0.371 and 0.342 and 0.306 and 0.322
same,mRNA levels of CREB,[1]; +Gluc,0.685 and 0.852 and 0.9121 and 0.8012 and 0.8061 and 0.6905
same,mRNA levels of CRTC2,[1]; +Gluc,0.8083 and 0.8216 and 1.1926 and 0.9078 and 0.9957 and 1.2399
same,"mRNA levels of CREB, group mean (Mean 2)","[1]; +Gluc, Ctrl mean 0.8616",0.7912
same,"mRNA levels of CRTC2, group mean (Mean 2)","[1]; +Gluc, Ctrl mean 0.8879",0.9943
same,mRNA levels of CREB,[1]; -Gluc,0.9172 and 0.8231 and 0.8735 and 0.9451 and 0.728 and 1.0773
same,mRNA levels of CRTC2,[1]; -Gluc,1.0775 and 1.0279 and 1.0015 and 1.1906 and 1.0107 and 1.2086
same,"mRNA levels of CREB, group mean (Mean 2)","[1]; -Gluc, Ctrl mean 0.9538",0.894
same,"mRNA levels of CRTC2, group mean (Mean 2)","[1]; -Gluc, Ctrl mean 1.009",1.086
same,"mRNA levels of Lxrα, Srebf1 and Srebf2 with overexpressed Crtc2-S171A","[1]; primary hepatocytes, APC 10 μM, 8-h",effectively reduced
same,"mRNA accumulation of G6pc, Pck1 and Pgc-1α induced by glucagon","[1]; primary hepatocytes, APC 1, 5 or 50 μM",remarkably decreased
same,"AUC of RER, %, group mean",Metabolic chamber assay; Dark,65.31%
same,"AUC of RER, %, group mean",Metabolic chamber assay; Light,53.9%
same,"AUC of RER, %",Metabolic chamber assay; Light,54.07% and 52.83% and 53.85% and 54.85%
same,"RER of DIO, column mean over the RER curve","Metabolic chamber assay; Mean of APC, 70 intervals, 4 animals",0.8038
same,"AUC of RER, %, column mean over total, light and dark","Metabolic chamber assay; Mean of APC, two-way RM ANOVA",79.47%
same,"AUC of RER, %, group mean",Metabolic chamber assay; Total,119.2%
same,"AUC of RER, %",Metabolic chamber assay; Total,125.06% and 111.68% and 115.24% and 124.86%
same,"AUC of RER, %",Metabolic chamber assay; dark,70.99% and 58.85% and 61.39% and 70.01%
same,RER of DIO,"Metabolic chamber assay; interval 1, hour 0",0.728 and 0.729 (2×) and 0.733
same,RER of DIO,"Metabolic chamber assay; interval 2, hour 0.7",0.795 and 0.774 and 0.72 and 0.734
same,RER of DIO,"Metabolic chamber assay; interval 3, hour 1.1",0.732 and 0.773 and 0.726 and 0.735
same,RER of DIO,"Metabolic chamber assay; interval 4, hour 1.5",0.747 and 0.761 and 0.73 and 0.738
same,RER of DIO,"Metabolic chamber assay; interval 5, hour 1.8",0.78 and 0.778 and 0.722 and 0.754
same,RER of DIO,"Metabolic chamber assay; interval 6, hour 2.2",0.747 and 0.794 and 0.723 and 0.738
same,RER of DIO,"Metabolic chamber assay; interval 7, hour 2.6",0.764 and 0.792 and 0.716 and 0.758
same,RER of DIO,"Metabolic chamber assay; interval 8, hour 2.9",0.779 and 0.804 and 0.705 and 0.738
same,RER of DIO,"Metabolic chamber assay; interval 9, hour 3.3",0.766 and 0.82 and 0.724 and 0.727
same,RER of DIO,"Metabolic chamber assay; interval 10, hour 3.7",0.818 and 0.814 and 0.729 and 0.75
same,RER of DIO,"Metabolic chamber assay; interval 11, hour 4.0",0.78 and 0.803 and 0.732 and 0.733
same,RER of DIO,"Metabolic chamber assay; interval 12, hour 4.4",0.735 and 0.792 and 0.714 and 0.756
same,RER of DIO,"Metabolic chamber assay; interval 13, hour 4.8",0.768 and 0.812 and 0.743 and 0.781
same,RER of DIO,"Metabolic chamber assay; interval 14, hour 5.1",0.759 and 0.799 and 0.716 and 0.757
same,RER of DIO,"Metabolic chamber assay; interval 15, hour 5.5",0.769 and 0.778 and 0.775 and 0.742
same,RER of DIO,"Metabolic chamber assay; interval 16, hour 5.9",0.783 and 0.804 and 0.718 and 0.774
same,RER of DIO,"Metabolic chamber assay; interval 17, hour 6.2",0.75 and 0.77 and 0.709 and 0.78
same,RER of DIO,"Metabolic chamber assay; interval 18, hour 6.6",0.801 and 0.79 and 0.715 and 0.767
same,RER of DIO,"Metabolic chamber assay; interval 19, hour 7.0",0.759 and 0.797 and 0.758 and 0.785
same,RER of DIO,"Metabolic chamber assay; interval 20, hour 7.3",0.769 and 0.747 and 0.713 and 0.758
same,RER of DIO,"Metabolic chamber assay; interval 21, hour 7.7",0.841 and 0.78 and 0.749 and 0.771
same,RER of DIO,"Metabolic chamber assay; interval 22, hour 8.1",0.782 and 0.771 and 0.743 and 0.797
same,RER of DIO,"Metabolic chamber assay; interval 23, hour 8.4",0.804 and 0.814 and 0.781 and 0.79
same,RER of DIO,"Metabolic chamber assay; interval 24, hour 8.8",0.838 and 0.788 and 0.764 and 0.822
same,RER of DIO,"Metabolic chamber assay; interval 25, hour 9.2",0.844 and 0.798 and 0.804 and 0.842
same,RER of DIO,"Metabolic chamber assay; interval 26, hour 9.5",0.809 and 0.808 and 0.794 and 0.831
same,RER of DIO,"Metabolic chamber assay; interval 27, hour 9.9",0.818 and 0.808 and 0.792 and 0.849
same,RER of DIO,"Metabolic chamber assay; interval 28, hour 10.3",0.832 and 0.843 and 0.84 and 0.846
